Data: patent US20250171495A1, “MUTLI-TARGETED SERINE PROTEASE INHIBITORS FOR TREATMENT OF CANCER AND VIRAL INFECTION” (Washington University, priority 2023, published 2025)
Like-named read-outs stand apart in the source and are kept apart here. Numbered stars: 1 amine (or outer) side, 2 acyl side, 3 side chain; on linkers, the order of the positions; unused ones are H or OH. Square brackets hold non-standard residues; d marks the D form. Peptide text beside a SMILES is read from it. X1 = N=C(N)NCCC[C@H](N[*:1])C(=O)c1nc2ccc(C(=O)[*:2])cc2s1; Phe(4-NO2) = N[C@@H](Cc1ccc([N+](=O)[O-])cc1)C(=O)O

Experiments:
Format in all cases: biochemical
matriptase = target: T1, matriptase (Homo sapiens, UniProt Q9Y5Y6); experiment: Fluorogenic kinetic enzyme inhibitor assay, matriptase
T1 construct: purchased R&D Systems 3946-SEB-010
T1 sequence (Q9Y5Y6 615-855 limits assumed): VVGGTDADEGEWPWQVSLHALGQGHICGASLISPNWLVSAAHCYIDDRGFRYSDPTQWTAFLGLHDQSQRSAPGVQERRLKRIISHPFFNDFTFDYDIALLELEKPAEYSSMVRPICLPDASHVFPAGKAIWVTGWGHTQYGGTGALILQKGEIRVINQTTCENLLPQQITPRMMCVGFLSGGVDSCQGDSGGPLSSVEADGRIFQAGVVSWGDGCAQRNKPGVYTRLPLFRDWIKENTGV

hepsin = target: T2, hepsin (Homo sapiens, UniProt P05981); experiment: Fluorogenic kinetic enzyme inhibitor assay, hepsin; conditions: read-out: Hepsin IC50
T2 construct: purchased R&D Systems 4776-SE-010
T2 sequence (P05981 163-417 limits assumed): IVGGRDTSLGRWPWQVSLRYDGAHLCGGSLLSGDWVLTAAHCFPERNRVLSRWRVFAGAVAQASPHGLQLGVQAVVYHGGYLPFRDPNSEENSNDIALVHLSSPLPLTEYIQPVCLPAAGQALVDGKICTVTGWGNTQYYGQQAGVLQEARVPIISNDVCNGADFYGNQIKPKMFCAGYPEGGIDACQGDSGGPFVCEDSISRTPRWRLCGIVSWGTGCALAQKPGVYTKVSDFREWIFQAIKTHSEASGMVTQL
T2 sequence (P05981 1-162 partner limits assumed): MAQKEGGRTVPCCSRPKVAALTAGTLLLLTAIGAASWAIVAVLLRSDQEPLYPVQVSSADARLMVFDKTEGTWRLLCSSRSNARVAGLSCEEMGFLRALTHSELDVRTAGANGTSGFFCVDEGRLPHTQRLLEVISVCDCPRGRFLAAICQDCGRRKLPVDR

HGFA = target: T3, HGFA (Homo sapiens, UniProt Q04756); experiment: Fluorogenic kinetic enzyme inhibitor assay, HGFA; conditions: read-out: HGFA IC50
T3 construct: purchased R&D Systems 1514-SE-010
T3 sequence (Q04756 408-655 limits assumed): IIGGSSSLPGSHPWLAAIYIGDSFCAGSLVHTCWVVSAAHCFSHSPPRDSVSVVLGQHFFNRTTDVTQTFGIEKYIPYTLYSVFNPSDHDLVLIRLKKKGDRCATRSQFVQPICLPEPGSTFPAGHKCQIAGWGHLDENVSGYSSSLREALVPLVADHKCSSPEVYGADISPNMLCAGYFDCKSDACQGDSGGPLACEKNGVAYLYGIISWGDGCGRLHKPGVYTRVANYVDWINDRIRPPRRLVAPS
T3 sequence (Q04756 373-407 partner limits assumed): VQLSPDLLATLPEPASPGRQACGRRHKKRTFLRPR

Thrombin = Thrombin (Homo sapiens, UniProt P00734); experiment: Fluorogenic assay, thrombin
Factor Xa = target: T4, Factor Xa (Homo sapiens, UniProt P00742); experiment: Fluorogenic assay, Factor Xa; conditions: read-out: Factor Xa IC50
T4 construct: TMPRSS2; Matriptase; Hepsin; HGFA; Thrombin; Factor Xa
T4 sequence (P00742 235-488 limits assumed): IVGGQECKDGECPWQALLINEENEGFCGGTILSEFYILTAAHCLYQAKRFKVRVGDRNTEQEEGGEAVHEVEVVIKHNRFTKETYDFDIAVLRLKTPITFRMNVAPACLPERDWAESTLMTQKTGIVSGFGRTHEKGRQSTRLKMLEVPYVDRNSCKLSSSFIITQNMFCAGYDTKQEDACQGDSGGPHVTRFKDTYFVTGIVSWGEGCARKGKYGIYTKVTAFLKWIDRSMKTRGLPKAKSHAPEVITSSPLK
T4 sequence (P00742 41-179 partner limits assumed): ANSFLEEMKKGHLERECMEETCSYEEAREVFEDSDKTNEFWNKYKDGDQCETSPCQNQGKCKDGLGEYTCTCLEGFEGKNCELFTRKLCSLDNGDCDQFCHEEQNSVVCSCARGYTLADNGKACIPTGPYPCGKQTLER

TMPRSS2 = TMPRSS2 (Homo sapiens, UniProt O15393); experiment: Fluorogenic kinetic enzyme inhibitor assay, TMPRSS2; parameters: purchased Cusabio Technology CSB-YP023924HU; conditions: read-out: TMPRSS2 IC50
Chain of TMPRSS2 (O15393 106-492 limits assumed): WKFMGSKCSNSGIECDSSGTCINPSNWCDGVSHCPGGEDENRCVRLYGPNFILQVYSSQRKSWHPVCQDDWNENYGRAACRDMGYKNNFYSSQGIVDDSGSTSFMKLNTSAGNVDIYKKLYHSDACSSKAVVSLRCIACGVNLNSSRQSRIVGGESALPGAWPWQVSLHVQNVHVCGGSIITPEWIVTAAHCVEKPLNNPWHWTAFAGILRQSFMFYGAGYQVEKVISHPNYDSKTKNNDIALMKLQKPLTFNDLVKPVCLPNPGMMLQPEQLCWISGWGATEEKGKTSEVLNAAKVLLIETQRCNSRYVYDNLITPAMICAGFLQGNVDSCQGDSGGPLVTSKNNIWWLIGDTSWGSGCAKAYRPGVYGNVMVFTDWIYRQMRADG

Molecule `N=C(N)NCCC[C@H](NC(=O)[C@H](Cc1ccccc1)NC(=O)[C@H](CCC(N)=O)NC(=O)Cc1ccccc1)C(=O)c1nc2ccccc2s1` [CA1018, N-[(S)-1-[N-(S)-1-[(1,3-benzothiazol-2-yl)carbonyl]-4-guanidinobutylcarbamoyl]-2-phenylethyl](S)-2-(benzylcarbonylamino) glutaramide] has an IC50 (matriptase; read-out: Matriptase IC50) of 0.99 nM, an IC50 (hepsin) of 0.65 nM and an IC50 (HGFA) of 75.2 nM. The IC50 (Thrombin) was greater than 20 µM, the IC50 (Factor Xa) was 212 nM and the IC50 (TMPRSS2) was 0.407 nM.

For `N=C(N)NCCC[C@@H](NC(=O)[C@H](Cc1ccccc1)NC(=O)[C@H](CCC(N)=O)NCc1ccccc1)C(=O)c1nc2ccccc2s1` [CA1022-1, N-[(S)-1-[N-(R)-1-[(1,3-benzothiazol-2-yl)carbonyl]-4-guanidinobutylcarbamoyl]-2-phenylethyl](S)-2-benzylaminoglutaramide], the IC50 (matriptase; read-out: Matriptase IC50) was 8.8 nM, the IC50 (hepsin) was 0.83 nM and the IC50 (HGFA) was 1300 nM. For the same molecule, the IC50 (Thrombin) was greater than 20 µM, the IC50 (Factor Xa) was 442 nM and the IC50 (TMPRSS2) was 2.35 nM.

For `N=C(N)NCCC[C@H](NC(=O)[C@H](Cc1ccccc1)NC(=O)[C@H](CCC(N)=O)NCc1ccccc1)C(=O)c1nc2ccccc2s1` [CA1022-2, N-[(S)-1-[N-(S)-1-[(1,3-benzothiazol-2-yl)carbonyl]-4-guanidinobutylcarbamoyl]-2-phenylethyl](S)-2-benzylaminoglutaramide], the IC50 (matriptase; read-out: Matriptase IC50) was 2.31 nM, the IC50 (hepsin) was 0.2 nM and the IC50 (HGFA) was 50.4 nM. For the same molecule, the IC50 (Thrombin) was greater than 20 µM, the IC50 (Factor Xa) was 40 nM and the IC50 (TMPRSS2) was 0.993 nM.

`N=C(N)NCCC[C@@H](NC(=O)[C@H](Cc1ccccc1)NC(=O)[C@H](CCC(N)=O)NCCc1ccccc1)C(=O)c1nc2ccccc2s1` [CA1033-1, N-[(S)-1-[N-(R)-1-[(1,3-benzothiazol-2-yl)carbonyl]-4-guanidinobutylcarbamoyl]-2-phenylethyl](S)-2-(phenethylamino)glutaramide] showed an IC50 (matriptase; read-out: Matriptase IC50) of 77.9 nM, an IC50 (hepsin) of 9.43 nM and an IC50 (HGFA) of 2870 nM. For the same molecule, the IC50 (Thrombin) was greater than 20 µM, the IC50 (Factor Xa) was 16800 nM and the IC50 (TMPRSS2) was 16.6 nM.

For `N=C(N)NCCC[C@H](NC(=O)[C@H](Cc1ccccc1)NC(=O)[C@H](CCC(N)=O)NCCc1ccccc1)C(=O)c1nc2ccccc2s1` [CA1033-2, N-[(S)-1-[N-(S)-1-[(1,3-benzothiazol-2-yl)carbonyl]-4-guanidinobutylcarbamoyl]-2-phenylethyl](S)-2-(phenethylamino)glutaramide], the IC50 (matriptase; read-out: Matriptase IC50) was 2.81 nM, the IC50 (hepsin) was 0.3 nM and the IC50 (HGFA) was 48.5 nM. It also gave an IC50 (Thrombin) of 10.2 µM, an IC50 (Factor Xa) of 1060 nM and an IC50 (TMPRSS2) of 0.316 nM.

`CN(C)[C@@H](CCC(N)=O)C(=O)N[C@@H](Cc1ccccc1)C(=O)N[C@H](CCCNC(=N)N)C(=O)c1nc2ccccc2s1` [CA1041-1, N-[(S)-1-[N-(R)-1-[(1,3-benzothiazol-2-yl)carbonyl]-4-guanidinobutylcarbamoyl]-2-phenylethyl](S)-2-(dimethylamino)glutaramide] gave an IC50 (matriptase; read-out: Matriptase IC50) of 144 nM, an IC50 (hepsin) of 123 nM and an IC50 (HGFA) greater than 20000 nM. For the same molecule, the IC50 (Thrombin) was greater than 20 µM, the IC50 (Factor Xa) was 7010 nM and the IC50 (TMPRSS2) was 18.4 nM.

With `CC(=O)N[C@@H](CO)C(=O)N[C@H](Cc1c[nH]c2ccccc12)C(=O)N[C@@H](CC(C)C)C(=O)N[C@@H](CCCNC(=N)N)C(=O)c1nc2ccc(C(=O)N[C@H](C(N)=O)C(C)C)cc2s1` [JH1114, N-[(S)-1-carbamoyl-2-methylpropyl]-2-[(S)-2-[(S)-2-[(R)-2-[(S)-2-acetylamino-3-hydroxypropionylamino]-3-(3-indolyl)propionylamino]-4-methylvalerylamino]-5-guanidinovaleryl]-1,3-benzothiazole-6-carboxamide] (Ac-S[dW]L[X1]V-NH2) the IC50 (matriptase) was 231 nM, the IC50 (hepsin) was 1.8 nM and the IC50 (HGFA) was 57.4 nM. It also gave an IC50 (Thrombin) of 3.88 µM and an IC50 (Factor Xa) of 1280 nM.

`CC(=O)N[C@H](Cc1c[nH]c2ccccc12)C(=O)N[C@@H](CCCCNC(=N)N)C(=O)N[C@@H](CCC(C)C)C(=O)N[C@@H](CCCNC(=N)N)C(=O)c1nc2ccccc2s1` [JH1140-2, N-[(S)-1-[(1,3-benzothiazol-2-yl)carbonyl]-4-guanidinobutyl](S)-2-[(S)-1-[(R)-2-acetylamino-3-(3-indolyl)propionylamino]-5-guanidinopentylcarbonylamino]-5-methylhexanamide] was tested, and the IC50 (matriptase) was 0.46 nM, the IC50 (hepsin) was 0.45 nM and the IC50 (HGFA) was 4.84 nM. For the same molecule, the IC50 (Thrombin) was greater than 20 µM and the IC50 (Factor Xa) was 9.12 nM.

For `CC(=O)N[C@@H](CCCCNC(=N)N)C(=O)N[C@@H](CCC(C)C)C(=O)N[C@@H](CCCNC(=N)N)C(=O)c1nc2ccccc2s1` [JH1141-2, N-[(S)-1-[(1,3-benzothiazol-2-yl)carbonyl]-4-guanidinobutyl](S)-2-[(S)-1-acetylamino-5-guanidinopentylcarbonylamino]-5-methylhexanamide], the IC50 (matriptase; read-out: Matriptase IC50) was 1.06 nM, the IC50 (hepsin) was 1.15 nM and the IC50 (HGFA) was 10.5 nM. For the same molecule, the IC50 (Thrombin) was greater than 20 µM and the IC50 (Factor Xa) was 121 nM.

With `CC(=O)N[C@@H](Cc1cncn1COCc1ccccc1)C(=O)N[C@@H](CCCCNC(=N)N)C(=O)N[C@@H](CCC(C)C)C(=O)N[C@@H](CCCNC(=N)N)C(=O)c1nc2ccccc2s1` [JH1143-2, N-[(S)-1-[(1,3-benzothiazol-2-yl)carbonyl]-4-guanidinobutyl](S)-2-[(S)-1-[(S)-2-acetylamino-3-{1-[(benzyloxy)methyl]-5-imidazolyl}propionylamino]-5-guanidinopentylcarbonylamino]-5-methylhexanamide] the IC50 (matriptase) was 0.862 nM, the IC50 (hepsin) was 0.728 nM and the IC50 (HGFA) was 43.9 nM. It also gave an IC50 (Thrombin) of 1.63 µM and an IC50 (Factor Xa) of 177 nM.

`CC(=O)N[C@@H](CO)C(=O)NCc1cccc(CC(=O)N[C@@H](CC(C)C)C(=O)N[C@@H](CCCNC(=N)N)C(=O)c2nc3ccccc3s2)c1` [MM1132-2, N-[(S)-1-[(1,3-benzothiazol-2-yl)carbonyl]-4-guanidinobutyl](S)-2-{[(m-{[(S)-2-acetylamino-3-hydroxypropionylamino]methyl}phenyl)methyl]carbonylamino}-4-methylvaleramide] showed an IC50 (matriptase; read-out: Matriptase IC50) of 31 nM, an IC50 (hepsin) of 0.326 nM and an IC50 (HGFA) of 209 nM. It also gave an IC50 (Thrombin) of 9.44 µM and an IC50 (Factor Xa) of 1890 nM.

With `CC(=O)N[C@@H](CO)C(=O)N[C@@H](Cc1ccc([N+](=O)[O-])cc1)C(=O)N[C@@H](CC(C)C)C(=O)N[C@@H](CCCNC(=N)N)C(=O)c1nc2ccc(C(=O)N[C@H](C(N)=O)C(C)C)cc2s1` [MM1180, N-[(S)-1-carbamoyl-2-methylpropyl]-2-[(S)-2-[(S)-2-[(S)-2-[(S)-2-acetylamino-3-hydroxypropionylamino]-3-(p-nitrophenyl)propionylamino]-4-methylvalerylamino]-5-guanidinovaleryl]-1,3-benzothiazole-6-carboxamide] (Ac-S[Phe(4-NO2)]L[X1]V-NH2) the IC50 (matriptase) was 133 nM, the IC50 (hepsin) was 3.1 nM and the IC50 (HGFA) was 231 nM. The IC50 (Thrombin) was 0.134 µM and the IC50 (Factor Xa) was 64.2 nM.

In the case of `CCC(C)[C@H](NC(C)=O)C(=O)N[C@@H](CCC(N)=O)C(=O)N[C@@H](CO)C(=O)N[C@@H](CCCNC(=N)N)C(=O)c1nc2ccccc2s1` (stereo partly drawn) [MM3177, N-[(S)-2-hydroxy-1-[N-(S)-1-[(1,3-benzothiazol-2-yl)carbonyl]-4-guanidinobutylcarbamoyl]ethyl](S)-2-[(2S)-2-acetylamino-3-methylvalerylamino]glutaramide], the IC50 (hepsin) is reported as 2.42 nM, the IC50 (HGFA) is reported as 19900 nM and the IC50 (Thrombin) is reported as greater than 20 µM. For the same molecule, the IC50 (Factor Xa) was 1730 nM and the IC50 (TMPRSS2) was 4.55 nM.

Work on `CC(=O)N[C@H](Cc1c[nH]c2ccccc12)C(=O)N[C@@H](Cc1ccccc1)C(=O)N[C@@H](CCCNC(=N)N)C(=O)c1nc2ccc(C(=O)O)cc2s1` [PK-1-93, 2-[(S)-2-[(S)-2-[(R)-2-acetylamino-3-(3-indolyl)propionylamino]-3-phenylpropionylamino]-5-guanidinovaleryl]-1,3-benzothiazole-6-carboxylic acid] yielded an IC50 (matriptase; read-out: Matriptase IC50) of 136 nM, an IC50 (hepsin) of 2 nM and an IC50 (HGFA) of 95.5 nM. For the same molecule, the IC50 (Thrombin) was 19.9 µM and the IC50 (Factor Xa) was 30.5 nM.

With `CC(=O)N[C@H]1CCCCn2cc(nn2)C[C@H](C(=O)N[C@H](CCCNC(=N)N)C(=O)c2nc3ccccc3s2)NC(=O)[C@H](CC(C)C)NC1=O` [VD4118A, N-[(R)-1-[(1,3-benzothiazol-2-yl)carbonyl]-4-guanidinobutyl]-(6S,9S,12R)-6-acetylamino-9-isobutyl-7,10-dioxo-1,8,11,15,16-pentaazabicyclo[12.2.1]heptadeca-14(17),15-diene-12-carboxamide] the IC50 (matriptase) was 19.6 nM, the IC50 (hepsin) was 117 nM and the IC50 (HGFA) was 15600 nM. The IC50 (Thrombin) was greater than 20 µM and the IC50 (Factor Xa) was 1930 nM.

Work on `CC(=O)N[C@H]1Cc2ccc(cc2)OCCCC[C@@H](C(=O)N[C@H](CCCNC(=N)N)C(=O)c2nc3ccccc3s2)NC(=O)[C@@H](Cc2c[nH]c3ccccc23)NC1=O` [VD4162A, N-[(R)-1-[(1,3-benzothiazol-2-yl)carbonyl]-4-guanidinobutyl]-(7S,10R,13S)-13-acetylamino-10-[(3-indolyl)methyl]-9,12-dioxo-2-oxa-8,11-diazabicyclo[13.2.2]nonadeca-1(17),15,18-triene-7-carboxamide] yielded an IC50 (matriptase) of 30.8 nM, an IC50 (hepsin) of 3.05 nM and an IC50 (HGFA) of 52 nM. It also gave an IC50 (Thrombin) greater than 20 µM and an IC50 (Factor Xa) of 7470 nM.
